From US12117402B2, “Bioluminescent sensor for isothiocyanates” (The United States of America, as represented by the …, priority 2021, dated 2024)

How the values were obtained:
[1] = test system: P. fluorescens SBW25 expressing an ilux operon under control of the saxA promoter; type: cell-based, Pseudomonas fluorescens SBW25; conditions: for responsiveness of the biosensor to the compound: FIG. 4
Experimental: (§1) For the basic microplate assay, the reporter biosensor was cultivated overnight in LB media with 50 μg/mL carbenicillin and 15 μg/mL gentamicin. The 200 μL assay was performed in opaque 96-well microtiter plates by adding ITC sample to the reporter cells at a final concentration of 0.05 OD600 in LB medium. All assay plates included cell-only controls (no ITC sample). Luminescence was measured in either a microplate spectrophotometer (Biotek Synergy HT) or a designated luminometer (Molecular Devices Spectramax L) for a 20-hour period in 15-minute intervals with ˜500 RPM shaking. Data were collected using auto-scaled gain or photon counting to increase signal detection. Modifications to the assay for the luxCDABE-based biosensor included a lower bacterial OD600 of 0.005, incubation at 31° C., and measurement every 30 min.
To increase the luminescent signal, the luxCDABE operon of the pHT #3 plasmid was replaced with the enhanced ilux operon that has an additional open reading frame encoding flavin mononucleotide (FMN) reductase and other optimizations (Gregor et al, Proc. Natl. Acad. Sci., (2018) 115(3): 962-967). All other components remained the same as the precursor, and this plasmid was assembled using the Gibson Assembly method (Gibson et al, Nature Meth., (2009) 6(5):343-347). The resulting plasmid, named pHT #9, was integrated into the P. fluorescens SBW25 genome in the same manner as pHT #3.
Plant extracts were prepared from seeds germinated in small petri dishes containing 0.5×Murashige and Skoog Medium and 0.3% agar for up to 4-days under artificial lighting. Germinated seeds and/or seedlings were transferred to 2-mL screwcap tubes containing steel beads. Water was added at a 1:2 ratio of plant weight to water volume. The tissue was macerated and pelleted by centrifugation. Supernatants were diluted prior to use in the basic microplate protocol.
To analyze the ability of the biosensor to detect ITCs in plant residues, seed meal was incubated on a rotating shaker at room temperature for 24 hrs with a 1:10 seed meal:water ratio (by mass) in 2.0 mL microcentrifuge tubes. Centrifuging and assaying of supernatant were conducted as described above for seedlings. Two seed meal types were tested—Sinapis alba (white mustard) and Brassica juncea (Indian mustard)—both of which are used in commercial biofumigation.
Biofumigated soil was collected from a field study in Hermiston, Oregon. The soils were managed in a 3-yr rotation with a Brassica cover crop mix (B. juncea Caliente 199 and Caliente Rojo; allyl ITC). The Brassica cover crop was tilled into the soil the day prior to sampling and the soils were stored frozen until analysis. […] Frozen soils were thawed and subsamples were homogenized (1600 MiniG homogenizer, 1500 RPM, 7 min), and rotated at room temperature for 45 min to allow time for glucosinolate hydrolysis. The sample was centrifuged for 5 min at 4,000×g and 100 μL extract was used in the basic microplate assay.
For analysis of seed meal amended soil, B. napus and S. alba seed meals were each added to a moist silt loam soils at 0.3% and 3% weight/dry weight. The soil/seed meals were mixed, transferred to small zippered bags and stored in gas-impermeable bags at room temperature. Soil amended with wheat straw and unamended soil were included as ITC-free controls.

[2] = aqueous solutions, pH 6; cited from earlier work
[3] = test system: P. fluorescens SBW25 expressing the luxCDABE operon under control of the saxA promoter
Source text: The plasmid vector pUC18T-Tn7T-lux-Gm (Damron et al., Appl. Environ. Microbiol. (2013) 79(13): 4149-4153), which contains Tn7 sites for integration into the P. fluorescens genome, a luxCDABE operon responsible for bioluminescence, and a gentamicin resistance marker. This plasmid also contained a pl promoter, an unregulated promoter upstream of the luxCDABE operon, which was removed and replaced with the desired promoter.
The saxA promoter was PCR amplified from Pseudomonas cannabina and cloned upstream of the luxCDABE gene operon. […] The resulting plasmid containing the luxCDABE operon under control of the saxA promoter was termed pHT #3. This plasmid was transformed into P. fluorescens SBW25, via electroporation and selected for gentamicin resistance.
as §1

Question: For N#C[S-].[K+] [potassium thiocyanate], which “responsiveness of the biosensor to the compound” value (“responsiveness of the biosensor” below) [1] is on record?
Answer: did not respond

Question: Which “responsiveness of the biosensor” value [1] does the source give for CNC(=S)S [Metam-sodium] here?
Answer: responsive

Question: For Oc1ccc(CN=C=S)cc1 [4-hydroxybenzyl ITC], which “responsiveness of the biosensor” value [1] is on record?
Answer: did not respond

Question: And the half-life [2]?
Answer: 6 min

Question: Which “response of luminescence to the amount of ITC” value ([3]; 0, 25, 50, 75, 100 μM) does the source give for C[S+]([O-])CCCCN=C=S (centres unmarked) [sulforaphane] here?
Answer: dose dependent response

Question: And the “area under the curve (AUC) value of luminescence” value ([3]; 100 μM of ITC)?
Answer: 1.5×10^7

Question: And the peak luminescence ([3]; 100 μM of ITC)?
Answer: approximately 700 relative light units (RLUs)

Question: What about the “time of peak luminescence after inoculation” value ([3]; regardless of the concentration, 0-100 μM) of the same compound?
Answer: 8 to 9 h

Question: What about the “time of initial peak luminescence” value [1] of the same compound?
Answer: 4 to 4.5 h

Question: And the “response of luminescence to the amount of ITC” value ([1]; 0, 5, 10, 25, 50, 75, 100 μM)?
Answer: dose-dependent response

Question: And the “increase in AUC compared to the luxCDABE biosensor” value ([1]; 100 μM dose)?
Answer: 2 fold

Question: And the “increase in the maximum RLU compared to the luxCDABE biosensor” value ([1]; 100 μM dose)?
Answer: 7.7 fold

Question: What about the “responsiveness of the biosensor” value [1] of the same compound?
Answer: responsive

Question: What about the “concentrations detected (limits of detection)” value ([1]; low-dose range 0-20 μM) of the same compound?
Answer: 1 to 2 µM
